Tested on: M1, M2 (w/Gqi5) and M3 ACh receptors stably expressed in CHO cells
Test: Calcium mobilization (FLIPR) IC50 determination for antagonists of ACh induced muscarinic receptor activation
Format: cell-based, human
Conditions: EC80 concentration of ACh, active if IC50 of between 33 uM and 10 nM or less, receptor subtype (M1/M2/M3) not specified
From the text: Calcium Mobilization Studies (FLIPR)
Studies to determine the effectiveness of antagonists to cause blockade of functional intracellular calcium fluxes following agonist (ACh) treatment of cloned human receptors.
This system is used for characterizations of antagonist-receptor interactions using four distinct variations of the FLIPR methodology: (a) potency: IC50 determination, (b) potency: pA2 determination, (c) reversibility of antagonist-receptor interaction, or (d) confirmation of no functional agonist activity. • Cell Source The human M1-M3 receptors are cloned and stably expressed in Chinese Hamster Ovary (CHO) cells. The M2 receptors are co-expressed with the chimeric G protein, Gqi5. • Cell lines: M1 stable: Biocat #1044; M2+Gqi5 stable: Biocat #95663; M3 stable: Biocat #1049 • Method of Culture: CHO-M1, CHO-Gqi5-M2 and CHO-M3 cells are cultured to confluence at 37° C. in a humidified incubator with 5% CO2/95% air. CHO-M1 and CHO-M3 are cultured in Alpha MEM with nucleosides and L-glutamine and 10% fetal calf serum. […] The emitted fluorescence from all 96 wells is measured simultaneously using a cooled CCD camera. Data points are collected every second. Maximal change in emission from each well after simultaneous addition of agonist or compound to each of the 96 wells is then exported to an excel spreadsheet. […] Experimental Protocols: • Cell plating: A microtiter plate based calcium mobilization FLIPR (Fluorometric Imaging Plate Reader, Molecular Devices, Sunnyvale Calif., [Schroeder KS, Neagle, BD. FLIPR: a new instrument for accurate, high throughput optical screening. J. Biomol. Screen. 1996; 1:75.]) assay is used for the functional characterization of compounds against M1, M2 (w/Gqi5) and M3 ACh receptors stably expressed in CHO cells. […] The basal emission fluorescence is measured, then the cellular response to an EC80 concentration of ACh (3.3 nM against M1, 10 nM against M2 and 1.0 nM against M3) prepared in KRH assay buffer with 0.1% BSA (no gelatin), is monitored in FLIPR for 90 seconds and then 50 μL of 100 μM ATP (assay concentration of 20 μM) is added to check cell viability (H. M. Sarau et al, 1999. Mol. Pharmacol. 56, 657-663). […]

**Q.** Which “IC50: compound pretreatment concentration which inhibits 50% of the ACh induced response” value does the source give for `CCc1nc2c(cnn2CC)c(NC2CCOCC2)c1CNC(=O)c1cccc(C(=O)NCc2ccc(F)c(-c3cccc(CNC4CCCC4)c3)c2)c1` [Example 307, N-({3′-[(Cyclopentylamino)methyl]-6-fluoro-3-biphenylyl}methyl)-N′-{[1,6-diethyl-4-(tetrahydro-2H-pyran-4-ylamino)-1H-pyrazolo[3,4-b]pyridin-5-yl]methyl}-1,3-benzenedicarboxamide] here?
**A.** most active

**Q.** With `CCc1nc2c(cnn2CC)c(NC2CCOCC2)c1CNC(=O)c1cccc(C(=O)NCc2ccc(F)c(-c3cccc(CNc4ccncc4)c3)c2)c1` [Example 311, N-{[1,6-Diethyl-4-(tetrahydro-2H-pyran-4-ylamino)-1H-pyrazolo[3,4-b]pyridin-5-yl]methyl}-N′-({6-fluoro-3′-[(4-pyridinylamino)methyl]-3-biphenylyl}methyl)-1,3-benzenedicarboxamide] as the compound, how does the “IC50: compound pretreatment concentration which inhibits 50% of the ACh induced response” value read?
**A.** most active

**Q.** Which “IC50: compound pretreatment concentration which inhibits 50% of the ACh induced response” value does the source give for `CCc1nc2c(cnn2CC)c(NC2CCOCC2)c1CNCc1cccc(C(=O)NCc2ccc(F)c(-c3cccc(CN4CCNCC4)c3)c2)c1` [Example 228, 3-[({[1,6-Diethyl-4-(tetrahydro-2H-pyran-4-ylamino)-1H-pyrazolo[3,4-b]pyridin-5-yl]methyl}amino)methyl]-N-{[6-fluoro-3′-(1-piperazinylmethyl)-3-biphenylyl]methyl}benzamide] here?
**A.** most active

**Q.** With `CCc1nc2c(cnn2CC)c(NC2CCOCC2)c1CNC(=O)c1cccc(C(=O)NCc2cc(-c3cccc(CN4CCN(C)CC4)c3)ccc2OC)c1` [Example 271, N-{[1,6-Diethyl-4-(tetrahydro-2H-pyran-4-ylamino)-1H-pyrazolo[3,4-b]pyridin-5-yl]methyl}-N′-({4-(methyloxy)-3′-[(4-methyl-1-piperazinyl)methyl]-3-biphenylyl}methyl)-1,3-benzenedicarboxamide] as the compound, how does the “IC50: compound pretreatment concentration which inhibits 50% of the ACh induced response” value read?
**A.** most active

Tested on: not given
Test: not given
Conditions: not given

**Q.** With `CCc1nc2c(cnn2CC)c(NC2CCOCC2)c1CNC(=O)c1cc(C)cc(C(=O)NCc2ccc(Cl)c(-c3cccc(C=O)c3)c2)c1` as the compound, how does the melting point read?
**A.** 153 to 156 °C

**Q.** For `CCc1nc2c(cnn2CC)c(NC2CCOCC2)c1CNC(=O)c1cc(C)cc(C(=O)NCc2ccc(C)c(-c3cccc(C=O)c3)c2)c1`, which melting point is on record?
**A.** 117 to 120 °C

**Q.** Which melting point does the source give for `CCc1nc2c(cnn2CC)c(NC2CCOCC2)c1CNC(=O)c1cccc(C(=O)NCc2ccc(F)c(-c3cccc(CN4C[C@@H]5C[C@H]4CN5)c3)c2)c1` [Example 207, N-({3′-[(1S,4S)-2,5-Diazabicyclo [2.2.1]hept-2-ylmethyl]-6-fluoro-3-biphenylyl}methyl)-N′-{[1,6-diethyl-4-(tetrahydro-2H-pyran-4-ylamino)-1H-pyrazolo[3,4-b]pyridin-5-yl]methyl}-1,3-benzenedicarboxamide] here?
**A.** 129 to 133 °C

**Q.** With `CCc1nc2c(cnn2CC)c(NC2CCOCC2)c1CNC(=O)c1cccc(C(=O)NCc2ccc(C)c(-c3cccc(CN4CCN(C)CC4)c3)c2)c1` [Example 193, N-{[1,6-Diethyl-4-(tetrahydro-2H-pyran-4-ylamino)-1H-pyrazolo[3,4-b]pyridin-5-yl]methyl}-N′-({6-methyl-3′-[(4-methyl-1-piperazinyl)methyl]-3-biphenylyl}methyl)-1,3-benzenedicarboxamide] as the compound, how does the melting point read?
**A.** 121 to 124 °C

**Q.** For `CCc1nc2c(cnn2CC)c(NC2CCOCC2)c1CNC(=O)c1cccc(C(=O)NCc2ccc(OC)c(-c3cccc(CN4CCNCC4)c3)c2)c1` [Example 209, N-{[1,6-Diethyl-4-(tetrahydro-2H-pyran-4-ylamino)-1H-pyrazolo[3,4-b]pyridin-5-yl]methyl}-N′-{[6-(methyloxy)-3′-(1-piperazinylmethyl)-3-biphenylyl]methyl}-1,3-benzenedicarboxamide], which melting point is on record?
**A.** 138 to 140 °C

— US8067408B2, “Dual pharmacophores—PDE4-muscarinic antagonistics” (priority 2008, dated 2011)
